{"source": "paper PMC5218480", "about": "(PLoS ONE, 2017)", "tested_on": "MV-4-11 cells", "test": "Gene expression microarray analysis (Affymetrix PrimeView) and GSEA", "format": "cell-based, human", "design": "RFU PODN (11730768_x_at) / Fold change /veh PODN (11730768_x_at) / RFU LINC00158 (11744669_a_at) / Fold change /veh LINC00158 (11744669_a_at) / RFU DUSP10 (11751237_a_at) / Fold change /veh DUSP10 (11751237_a_at) / RFU ID3 (11757404_x_at) / Fold change /veh ID3 (11757404_x_at) / RFU PLEKHG5 (11737974_s_at) / Fold change /veh PLEKHG5 (11737974_s_at) / RFU LRRC4B (11730491_at) / Fold change /veh LRRC4B (11730491_at) / RFU GIMAP4 (11747438_a_at) / Fold change /veh GIMAP4 (11747438_a_at) / RFU KRT8 (11758183_x_at) / Fold change /veh KRT8 (11758183_x_at) / RFU CNN1 (11734310_a_at) / Fold change /veh CNN1 (11734310_a_at) / RFU VPS37D (11726825_at) / Fold change /veh VPS37D (11726825_at) / RFU C10orf10 (11716522_x_at) / Fold change /veh C10orf10 (11716522_x_at) / RFU KIR2DL2 /// KIR2DL4 /// KIR2DL5A /// KIR2DL5B /// KIR2DS1 /// KIR2DS2 /// KIR2DS3 /// KIR2DS4 /// KIR3DL3 /// KIR3DL3 /// KIR3DS1 (11738374_at) / Fold change /veh KIR2DL2 /// KIR2DL4 /// KIR2DL5A /// KIR2DL5B /// KIR2DS1 /// KIR2DS2 /// KIR2DS3 /// KIR2DS4 /// KIR3DL3 /// KIR3DL3 /// KIR3DS1 (11738374_at) / RFU C1QL1 (11718748_at) / Fold change /veh C1QL1 (11718748_at) / RFU TMPRSS4 (11747572_a_at) / Fold change /veh TMPRSS4 (11747572_a_at) / RFU HAMP (11756126_x_at) / Fold change /veh HAMP (11756126_x_at) / RFU RNFT2 (11725882_a_at) / Fold change /veh RNFT2 (11725882_a_at) / RFU NR4A2 (11747474_a_at) / Fold change /veh NR4A2 (11747474_a_at) / RFU ABCC12 (11746883_a_at) / Fold change /veh ABCC12 (11746883_a_at) / RFU TMEM136 (11760407_x_at) / Fold change /veh TMEM136 (11760407_x_at) / RFU CLDN22 /// WWC2 (11732394_at) / Fold change /veh CLDN22 /// WWC2 (11732394_at) / RFU HLA-DPB1 (11760878_x_at) / Fold change /veh HLA-DPB1 (11760878_x_at) / RFU SPINT1 (11716480_a_at) / Fold change /veh SPINT1 (11716480_a_at) / RFU GAP43 (11754022_s_at) / Fold change /veh GAP43 (11754022_s_at) / RFU A4GNT (11735810_at) / Fold change /veh A4GNT (11735810_at) / RFU PRB3 (11715151_x_at) / Fold change /veh PRB3 (11715151_x_at) / RFU TUBB4B (11761932_at) / Fold change /veh TUBB4B (11761932_at) / RFU CAPN14 (11732068_a_at) / Fold change /veh CAPN14 (11732068_a_at) / RFU TMCC2 (11721928_a_at) / Fold change /veh TMCC2 (11721928_a_at) / RFU IRGQ (11745062_a_at) / Fold change /veh IRGQ (11745062_a_at) / RFU FAM174B (11720279_a_at) / Fold change /veh FAM174B (11720279_a_at) / RFU TMPRSS4 (11748680_a_at) / Fold change /veh TMPRSS4 (11748680_a_at) / RFU FAM212B (11763350_a_at) / Fold change /veh FAM212B (11763350_a_at) / RFU PLEKHG5 (11743358_a_at) / Fold change /veh PLEKHG5 (11743358_a_at) / RFU ZSCAN30 (11745921_a_at) / Fold change /veh ZSCAN30 (11745921_a_at) / RFU CMKLR1 (11741424_a_at) / Fold change /veh CMKLR1 (11741424_a_at) / RFU LOC101060620 /// MAPK8IP1 (11723275_at) / Fold change /veh LOC101060620 /// MAPK8IP1 (11723275_at) / RFU SPTSSB (11747773_x_at) / Fold change /veh SPTSSB (11747773_x_at) / RFU PRSS12 (11739890_at) / Fold change /veh PRSS12 (11739890_at) / RFU BIN1 (11741810_x_at) / Fold change /veh BIN1 (11741810_x_at) / RFU WNT11 (11732464_a_at) / Fold change /veh WNT11 (11732464_a_at) / RFU C10orf10 (11716521_a_at) / Fold change /veh C10orf10 (11716521_a_at) / RFU C5orf56 (11738089_at) / Fold change /veh C5orf56 (11738089_at) / RFU CYB561 (11721691_x_at) / Fold change /veh CYB561 (11721691_x_at) / RFU ANKRD19P (11752326_a_at) / Fold change /veh ANKRD19P (11752326_a_at) / RFU OR2T12 /// OR2T33 /// OR2T8 (11738714_s_at) / Fold change /veh OR2T12 /// OR2T33 /// OR2T8 (11738714_s_at) / RFU VCAN (11748164_a_at) / Fold change /veh VCAN (11748164_a_at) / RFU JSRP1 (11732532_at) / Fold change /veh JSRP1 (11732532_at) / RFU KRTAP10-11 (11738290_x_at) / Fold change /veh KRTAP10-11 (11738290_x_at) / RFU MYO3A (11730013_a_at) / Fold change /veh MYO3A (11730013_a_at) / RFU EBF3 (11725865_a_at) / Fold change /veh EBF3 (11725865_a_at) / RFU CAMK2N1 (11719241_x_at) / Fold change /veh CAMK2N1 (11719241_x_at) / RFU C5orf56 (11738088_a_at) / Fold change /veh C5orf56 (11738088_a_at) / RFU OLFML3 (11715873_a_at) / Fold change /veh OLFML3 (11715873_a_at) / RFU LOC100653217 /// NTM (11731650_a_at) / Fold change /veh LOC100653217 /// NTM (11731650_a_at) / RFU MAPK11 (11762145_a_at) / Fold change /veh MAPK11 (11762145_a_at) / RFU FIZ1 (11724087_x_at) / Fold change /veh FIZ1 (11724087_x_at) / RFU OASL (11726364_x_at) / Fold change /veh OASL (11726364_x_at) / RFU SOX15 (11748057_x_at) / Fold change /veh SOX15 (11748057_x_at) / RFU CD79A (11719716_a_at) / Fold change /veh CD79A (11719716_a_at) / RFU HIST1H1D (11736915_at) / Fold change /veh HIST1H1D (11736915_at) / RFU CASKIN2 (11723855_a_at) / Fold change /veh CASKIN2 (11723855_a_at) / RFU LOC730098 (11760151_x_at) / Fold change /veh LOC730098 (11760151_x_at) / RFU OR4N2 (11742367_at) / Fold change /veh OR4N2 (11742367_at) / RFU PRRT2 (11749266_a_at) / Fold change /veh PRRT2 (11749266_a_at) / RFU SNX32 (11753110_a_at) / Fold change /veh SNX32 (11753110_a_at) / RFU CDHR5 (11726645_a_at) / Fold change /veh CDHR5 (11726645_a_at) / RFU RCAN1 (11760418_a_at) / Fold change /veh RCAN1 (11760418_a_at) / RFU FAM167A (11723789_a_at) / Fold change /veh FAM167A (11723789_a_at) / RFU FAM26E (11764081_at) / Fold change /veh FAM26E (11764081_at) / RFU ISYNA1 (11749810_s_at) / Fold change /veh ISYNA1 (11749810_s_at) / RFU ACY1 (11761880_at) / Fold change /veh ACY1 (11761880_at) / RFU 11764098_at / Fold change /veh 11764098_at / RFU SAMD14 (11745864_x_at) / Fold change /veh SAMD14 (11745864_x_at) / RFU NPB (11741838_a_at) / Fold change /veh NPB (11741838_a_at) / RFU TMPRSS6 (11731388_a_at) / Fold change /veh TMPRSS6 (11731388_a_at) / RFU KRTAP10-2 (11738614_at) / Fold change /veh KRTAP10-2 (11738614_at) / RFU ARHGAP8 /// PRR5-ARHGAP8 (11727945_x_at) / Fold change /veh ARHGAP8 /// PRR5-ARHGAP8 (11727945_x_at) / RFU KRTAP5-7 /// NADSYN1 (11734609_at) / Fold change /veh KRTAP5-7 /// NADSYN1 (11734609_at) / RFU RASL12 (11751679_a_at) / Fold change /veh RASL12 (11751679_a_at) / RFU CDKN2B (11736163_a_at) / Fold change /veh CDKN2B (11736163_a_at) / RFU PRF1 (11729649_at) / Fold change /veh PRF1 (11729649_at) / RFU, ZNF638 /// ZNF638-IT1 / Fold change vs veh, ZNF638 /// ZNF638-IT1 / RFU, PANK3 / Fold change vs veh, PANK3 / RFU, SH3YL1 / Fold change vs veh, SH3YL1 / RFU, ZEB2 / Fold change vs veh, ZEB2 / RFU, NRIP1 / Fold change vs veh, NRIP1 / RFU, PTTG1IP / Fold change vs veh, PTTG1IP / RFU, CAPN2 / Fold change vs veh, CAPN2 / RFU, MED14 / Fold change vs veh, MED14 / RFU, SNORA58 / Fold change vs veh, SNORA58 / RFU, C1orf63 / Fold change vs veh, C1orf63 / RFU, LRRFIP1 / Fold change vs veh, LRRFIP1 / RFU, NDUFAF7 / Fold change vs veh, NDUFAF7 / RFU, SLC12A2 / Fold change vs veh, SLC12A2 / RFU, IBTK / Fold change vs veh, IBTK / RFU, ESF1 / Fold change vs veh, ESF1 / Fold change vs veh, TMEM50B / RFU, TAOK1 / Fold change vs veh, TAOK1 / RFU, ACBD3 / Fold change vs veh, ACBD3 / RFU, TMA16 / Fold change vs veh, TMA16 / RFU, RWDD3 / Fold change vs veh, RWDD3 / RFU, BCAT1 / Fold change vs veh, BCAT1 / RFU, EDEM3 / Fold change vs veh, EDEM3 / RFU, TMEM33 / Fold change vs veh, TMEM33 / RFU, WDR75 / Fold change vs veh, WDR75 / RFU, AHCTF1 / Fold change vs veh, AHCTF1 / RFU, TFRC / Fold change vs veh, TFRC / RFU, ZDHHC17 / Fold change vs veh, ZDHHC17 / RFU, NOM1 / Fold change vs veh, NOM1 / RFU, ARL8B / Fold change vs veh, ARL8B / RFU, ZBTB11 / Fold change vs veh, ZBTB11 / RFU, TAMM41 / Fold change vs veh, TAMM41 / RFU, KIAA1704 /// LOC100996395 / Fold change vs veh, KIAA1704 /// LOC100996395 / RFU, ING1 / Fold change vs veh, ING1 / RFU, TRMT61B / Fold change vs veh, TRMT61B / RFU, FUBP3 / Fold change vs veh, FUBP3 / RFU, TP53 / Fold change vs veh, TP53 / RFU, TNKS2 / Fold change vs veh, TNKS2 / RFU, ZFP14 / Fold change vs veh, ZFP14 / RFU, ACTR2 / Fold change vs veh, ACTR2 / RFU, PPP3R1 / Fold change vs veh, PPP3R1 / RFU, PIK3R1 / Fold change vs veh, PIK3R1 / RFU, HNRNPA1 / Fold change vs veh, HNRNPA1 / RFU, RNF170 / Fold change vs veh, RNF170 / RFU, ZNF28 / Fold change vs veh, ZNF28 / RFU, RNGTT / Fold change vs veh, RNGTT / RFU, OGT / Fold change vs veh, OGT / RFU, BRD1 / Fold change vs veh, BRD1 / RFU, MARS / Fold change vs veh, MARS / RFU, ZNF655 / Fold change vs veh, ZNF655 / RFU, FAHD1 / Fold change vs veh, FAHD1 / RFU, BDP1 / Fold change vs veh, BDP1 / RFU, LRRCC1 / Fold change vs veh, LRRCC1 / RFU, ARID1A / Fold change vs veh, ARID1A / RFU, ZNF146 / Fold change vs veh, ZNF146 / RFU, ZNF330 / Fold change vs veh, ZNF330 / RFU, GPN3 / Fold change vs veh, GPN3 / RFU, C9orf123 / Fold change vs veh, C9orf123 / RFU, N4BP2L2 / Fold change vs veh, N4BP2L2 / RFU, ARFIP1 / Fold change vs veh, ARFIP1 / RFU, FAM179B / Fold change vs veh, FAM179B / RFU, BCL10 / Fold change vs veh, BCL10 / RFU, UHRF1BP1L / Fold change vs veh, UHRF1BP1L / RFU, BET1 / Fold change vs veh, BET1 / RFU, CNOT2 / Fold change vs veh, CNOT2 / RFU, ZNF268 / Fold change vs veh, ZNF268 / Fold change vs veh, ZNF507 / RFU, DGCR2 / Fold change vs veh, DGCR2 / RFU, WDSUB1 / Fold change vs veh, WDSUB1 / Fold change vs veh, HSP90B1 /// MIR3652 / RFU, ADSS / Fold change vs veh, ADSS / RFU, GK / Fold change vs veh, GK / RFU, ZNF148 / Fold change vs veh, ZNF148 / RFU, TAF9 / Fold change vs veh, TAF9 / RFU, SLC1A5 / Fold change vs veh, SLC1A5 / RFU, SLMO2 / Fold change vs veh, SLMO2 / RFU, ABCC4 / Fold change vs veh, ABCC4 / RFU, LOC101060439 /// RAP1B / Fold change vs veh, LOC101060439 /// RAP1B / RFU, RFX7 / Fold change vs veh, RFX7 / RFU, GTPBP10 / Fold change vs veh, GTPBP10 / RFU, CNEP1R1 / Fold change vs veh, CNEP1R1 / RFU, BIVM-ERCC5 /// ERCC5 / Fold change vs veh, BIVM-ERCC5 /// ERCC5 / RFU, ILF3 / Fold change vs veh, ILF3 / RFU 11762660_at / Fold change /veh 11762660_at / RFU VCAN (11757783_s_at) / Fold change /veh VCAN (11757783_s_at) / RFU DDX43 (11728927_at) / Fold change /veh DDX43 (11728927_at) / RFU KRT8 (11758188_x_at) / Fold change /veh KRT8 (11758188_x_at) / RFU NKD1 (11759106_at) / Fold change /veh NKD1 (11759106_at) / RFU SRD5A1 (11742802_a_at) / Fold change /veh SRD5A1 (11742802_a_at) / RFU TPSAB1 /// TPSB2 (11721975_s_at) / Fold change /veh TPSAB1 /// TPSB2 (11721975_s_at) / RFU GSTM3 (11746129_a_at) / Fold change /veh GSTM3 (11746129_a_at) / RFU IL23R (11737362_x_at) / Fold change /veh IL23R (11737362_x_at) / RFU TMEM51 (11727254_a_at) / Fold change /veh TMEM51 (11727254_a_at) / RFU PIWIL2 (11732686_x_at) / Fold change /veh PIWIL2 (11732686_x_at) / RFU ORM1 (11744905_x_at) / Fold change /veh ORM1 (11744905_x_at) / RFU CCDC152 (11743942_at) / Fold change /veh CCDC152 (11743942_at) / RFU ECM1 (11717891_a_at) / Fold change /veh ECM1 (11717891_a_at) / RFU IL23R (11748794_a_at) / Fold change /veh IL23R (11748794_a_at) / RFU TNFAIP8L3 (11732012_x_at) / Fold change /veh TNFAIP8L3 (11732012_x_at) / RFU MBOAT4 (11741988_at) / Fold change /veh MBOAT4 (11741988_at) / RFU 11764193_at / Fold change /veh 11764193_at / RFU TMEM53 (11763286_at) / Fold change /veh TMEM53 (11763286_at) / RFU MAGEB2 (11727129_at) / Fold change /veh MAGEB2 (11727129_at) / RFU TMEM200A (11744735_a_at) / Fold change /veh TMEM200A (11744735_a_at) / RFU CCDC152 (11751479_a_at) / Fold change /veh CCDC152 (11751479_a_at) / RFU FAM211A (11726209_a_at) / Fold change /veh FAM211A (11726209_a_at) / RFU RGS16 (11746705_a_at) / Fold change /veh RGS16 (11746705_a_at) / RFU VCAN (11755009_s_at) / Fold change /veh VCAN (11755009_s_at) / RFU RHOB (11743442_s_at) / Fold change /veh RHOB (11743442_s_at) / RFU RGS16 (11720943_a_at) / Fold change /veh RGS16 (11720943_a_at) / RFU RGS16 (11720944_at) / Fold change /veh RGS16 (11720944_at) / RFU, VPS4B / Fold change vs veh, VPS4B / RFU, CREB1 / Fold change vs veh, CREB1 / RFU, DNAJC13 / Fold change vs veh, DNAJC13 / RFU, GNAQ / Fold change vs veh, GNAQ / RFU, CDK5R1 / Fold change vs veh, CDK5R1 / RFU, ZRANB3 / Fold change vs veh, ZRANB3 / RFU, CUL4A / Fold change vs veh, CUL4A / RFU, CCNY / Fold change vs veh, CCNY / RFU, UFL1 / Fold change vs veh, UFL1 / RFU, COG3 / Fold change vs veh, COG3 / RFU, DIAPH2 / Fold change vs veh, DIAPH2 / RFU, SKA2 / Fold change vs veh, SKA2 / RFU, AFF3 / Fold change vs veh, AFF3 / RFU, LMF1 / Fold change vs veh, LMF1 / RFU, IPO11 / Fold change vs veh, IPO11 / RFU, DFFB / Fold change vs veh, DFFB / RFU, FOXP1 / Fold change vs veh, FOXP1 / RFU, CARD8 / Fold change vs veh, CARD8 / RFU, STRN3 / Fold change vs veh, STRN3 / RFU, ADK / Fold change vs veh, ADK / RFU, RASSF2 / Fold change vs veh, RASSF2 / RFU, WIPF1 / Fold change vs veh, WIPF1 / RFU, LARP1B / Fold change vs veh, LARP1B / RFU, RASA1 / Fold change vs veh, RASA1 / RFU, RB1 / Fold change vs veh, RB1 / RFU, PPFIA1 / Fold change vs veh, PPFIA1 / RFU, MAT2A / Fold change vs veh, MAT2A / RFU, CCT5 / Fold change vs veh, CCT5 / RFU, WDR92 / Fold change vs veh, WDR92 / RFU, CUX1 / Fold change vs veh, CUX1 / RFU, TTC7A / Fold change vs veh, TTC7A / RFU, TMEM135 / Fold change vs veh, TMEM135 / RFU, DEPTOR / Fold change vs veh, DEPTOR / RFU, CPM / Fold change vs veh, CPM / RFU, DNAJB6 / Fold change vs veh, DNAJB6 / RFU, CACNA2D3 / Fold change vs veh, CACNA2D3 / RFU, DTX4 / Fold change vs veh, DTX4 / RFU, TFCP2 / Fold change vs veh, TFCP2 / RFU, GMCL1 /// GMCL1P1 / Fold change vs veh, GMCL1 /// GMCL1P1 / RFU, AEBP2 / Fold change vs veh, AEBP2 / RFU, SNHG1 /// SNORD22 /// SNORD25 /// SNORD26 /// SNORD27 /// SNORD28 /// SNORD29 /// SNORD31 / Fold change vs veh, SNHG1 /// SNORD22 /// SNORD25 /// SNORD26 /// SNORD27 /// SNORD28 /// SNORD29 /// SNORD31 / Fold change (Aza/veh), C12orf56 (ProbeSet 11735607_a_at) / Fold change (ACY-1035/veh), C12orf56 (ProbeSet 11735607_a_at) / Fold change (Aza/veh), FGFR1OP (ProbeSet 11751329_s_at) / Fold change (ACY-1035/veh), FGFR1OP (ProbeSet 11751329_s_at) / Fold change (Aza/veh), VPS36 (ProbeSet 11739960_a_at) / Fold change (ACY-1035/veh), VPS36 (ProbeSet 11739960_a_at) / RFU SYPL1 (11715823_x_at) / Fold change /veh SYPL1 (11715823_x_at) / RFU IGFBP7 (11715501_s_at) / Fold change /veh IGFBP7 (11715501_s_at) / RFU REEP3 (11722064_at) / Fold change /veh REEP3 (11722064_at) / RFU IGLL1 (11728026_x_at) / Fold change /veh IGLL1 (11728026_x_at): dose or concentration left out as unconfirmed", "conditions": "MV-4-11 cells, 48 hours"}
{"smiles": "Nc1ccc(-c2cccs2)cc1NC(=O)c1ccc2c(c1)cc(C1CC1)n2CCN1CCOCC1", "note": "[ACY-1035]", "values": [{"measurement": "RFU ECM1 (11717891_a_at)", "value": 18.49, "unit": "RFU"}]}
